Reference: patent US12310967B2, “Compositions and methods of treatment for neurological disorders comprising motor neuron diseases” (Gliapharm SA, priority 2017, dated 2025)

Assays:
[1] = system: primary astrocytes; test: High throughput screening (HTS) for lactate secretion: acidification of extracellular medium (SNARF5); assay type: cell-based, mouse; parameters: key to Score / HTS Score (SNARF5) / Score_SNARF: fraction of plate positive-control activity (1 = 100%); conditions: Appendix I; for Score_SNARF: primary screening confirmation (SNARF5)
Method: Primary cultures of cerebrocortical astrocytes were obtained from 1-2-day-old OF1 mouse pups (Charles River Laboratories). Briefly, cortices were isolated and minced in small pieces under a dissecting microscope. The cells were incubated for 30 min at 37° C. in a solution containing 20 U/ml of papain enzyme (Worthington Biochemical), L-cysteine 1 mM (Sigma), and 10 kU/ml DNase I (Worthington Biochemical) for an enzymatic dissociation. Papain activity was stopped by the addition of fetal calf serum (FCS) to the solution, and a single-cell suspension was then obtained by mechanical dissociation, which consisted in cells trituration in a DMEM (D7777, Sigma-Aldrich) medium (supplemented with 44 mm NaHCO3, and 10 ml/L antibiotic/antimycotic solution) containing 10% FCS. The cells were seeded at an average density of 6×10^4 cells/cm^2 in poly-D-lysine-coated 96, 12 or 6-well culture plates, depending on their use, and incubated at 37° C. in a humidified atmosphere containing 5% CO2/95% air. Culture medium was renewed twice per week. Cells were stimulated and harvested between DIV14 and DIV17, when confluence and cell growth were optimal.
Secretion of lactate in a high-throughput screening (HTS) fashion was measured indirectly through the acidification of extracellular medium. To this end, primary astrocytes grown in 96-well plates for 17 days were stimulated with the compounds as listed herein.
After washing the cells twice with stimulation medium (DMEM (D5030, Sigma), 3 mM NaHCO3 and 5 mM Glucose) at 37° C., cells were stimulated with the compounds at a final concentration of 10 uM (1% DMSO final) in 50 ul per well of stimulation medium supplemented with 10 uM of the extracellular pH sensor SNARF-5F %-(AND-6)-CAR (Life Technologies Corporation). Each compound was tested in two different plates for duplicates.
After 90 min stimulation, fluorescence was read at exc. (excitation) 480 nm/emm. (emission) 580 nm and at exc 480 nm/emm. 630 nm. The ratio of fluorescence between 630 nm and 580 emission values, which represents extracellular pH, was calculated.
In each plate, 8 wells were used for negative controls (DMSO) and 8 wells were used for positive controls (CCCP 2 uM in DMSO). Z prime values were calculated for each of the plates tested and values<0 were discarded.
The average and SD of compounds' values tested in duplicates were calculated, and compound was noted as HIT when the difference between compound's average and negative control's average was greater than three times the sum of compound's SD and negative controls' SD. Only scores greater than 40% were considered as lead Hits for the CDC54K library; for the remaining libraries, all hits were considered. Scores are calculated as the % of activity compared to the positive control in each plate (which is 100%).
Primary screening hits were cherry picked on new plates and confirmed for SNARF5 effect, after having discarded those compounds that are fluorescent (exc. 480 nm/emm. 580 nm or 630 nm) before stimulation. Extracellular medium was next analyzed for extracellular lactate quantification for secondary screening.
Identification of lactate-enhancing drugs with high throughput screening (HTS) experiments on astrocytes primary cultures using extracellular pH dye (SNARF5F 5-(and-6)-carboxylic acid) for 90 min. The procedure is described in Material and Methods (2. Cell culture, 2.1. HTS for lactate secretion and 2.2. Extracellular lactate quantification).
The procedure was performed as follows: • Primary screening: acidification of the extracellular medium • Primary screening confirmation: acidification of the extracellular medium, removal of compounds with fluorescent activity at exc. 480 nm/emm. 580 nm or 630 n. • Secondary screening: dosage of extracellular lactate

[2] = system: primary astrocytes; test: Extracellular lactate quantification; assay type: cell-based, mouse; conditions: Appendix I, secondary screening: extracellular lactate
Method: Secretion of L-lactate was determined in the extracellular medium of 96-well plated astrocytes after 90 min stimulation (at 37° C., in 5% CO2/95% air conditions) with the drug of interest. The stimulation medium was composed of D5030 medium (completed with D-glucose 5 mM and 44 mM sodium bicarbonate) for 90 min in concentrations ranging from 0 to 100 μM.
Briefly, 200 μl of a Glycine (Sigma)-Semicarbazide (Acros) 0.2M pH 10 buffer containing 3 mM NAD (Roche) and LDH 14 U/ml (Roche) was added to each well of a 96-well plate containing 30 μl aliquots complemented with 20 μl fresh complete D5030 medium. Samples were incubated at 37° C. for 1 h. After samples cooled down at room temperature, the fluorescence intensity (340 nm excitation/450 nm emission) that represents the amount of NADH produced was measured, and lactate concentration values were determined from a standard curve of L-lactate.
Statistical analysis consisted in ANOVA followed by Fisher LSD post-hoc test for pair-wise comparisons.
Levels of lactate secreted by astrocytes were measured in the extracellular medium at 90 min after stimulation with hits (molecules) from the CDC54K library.

| Compound | Score_SNARF [1] | Score_LACTATE [2] | Score ([1]; CDC54K primary screening, 10 uM, 90 min, relative to CCCP 2 uM) |
| --- | --- | --- | --- |
| CC(=O)c1cccc(NC(=O)C(C)Sc2ncnc3ccsc23)c1 (centres unmarked) [T5627721] | 0.7385 | 0.9487 |  |
| Cc1cccc(NS(=O)(=O)c2cc(-c3ccnn3C)cs2)c1 [L924-0884] | 0.7507 | 0.7362 |  |
| c1csc(C(Nc2ncnc3sccc23)C2CC2)c1 (centres unmarked) [T5713637] | 1.184 | 1.287 |  |
| O=S(=O)(Nc1ccc(F)c(Cl)c1)c1ccc2ccccc2c1 [T5231424] | 0.3707 | 0.5258 |  |
| O=S(=O)(Nc1ccc2[nH]ncc2c1)c1ccc(C(F)(F)F)cc1 [T5653029] | 0.5642 | 1.354 |  |
| OC1(c2ccccc2)C[N+](c2ccc(Cl)cc2)=C2CCCCN21.[Br-] (centres unmarked) [F0524-0488] | 0.3489 | 0 |  |
| COc1ccccc1[N+]1=C2CCCCN2C(O)(c2ccc(F)cc2)C1.[Br-] (centres unmarked) [F0524-0338] | 0.634 | 1.585 |  |
| Cc1cc(S(=O)(=O)NCc2ccncc2)c(Cl)cc1Cl [T5581430] | 0.505 | 0 |  |
| CC(C)OCCCNc1ncnc2c1CCC2 [T636-0027] | 0 | 0 |  |
| Cc1ccc(C)c([N+]2=C3CCCCN3C(O)(c3ccc(F)cc3)C2)c1 (centres unmarked) [K404-0697] | 0.5123 | 0.6526 |  |
| O=S(=O)(Nc1ccc(O)c(Cl)c1)c1ccc2ccccc2c1 [T0517-8939] | 0.6382 | 0 |  |
| c1ccc(C(Nc2ncnc3sccc23)C2CC2)cc1 (centres unmarked) [T6016487] | 1.081 | 1.857 |  |
| CCOc1ccc(C2(O)C[N+](c3cc(OC)ccc3OC)=C3CCCCCN32)cc1 (centres unmarked) [K404-0860] | 0.6137 | 0.4766 |  |
| O=C(Cc1cccc(F)c1)N1CCC(Nc2ncnc3c2CCC3)C1 (centres unmarked) [T636-2360] | 0 | 0.413 |  |
| Cc1oc2ncnc(N3CCCC(C(=O)NCc4cccnc4)C3)c2c1C (centres unmarked) [F228-0351] | 0.82 | 0.8985 |  |
| Cc1cccc([N+]2=C3SCCCN3C(O)(c3ccc(Cl)cc3)C2)c1.[Br-] (centres unmarked) [F0522-0533] | 0.4705 | 0 |  |
| COc1ccccc1[N+]1=C2CCCCCN2C(O)(c2cccc([N+](=O)[O-])c2)C1 (centres unmarked) [K404-0842] | 0.2022 | 0 | 0.169 |
